Reference: patent US11994511B2, “Biomarkers indicative of prostate cancer and treatment thereof” (UNIVERSITY OF MIAMI, priority 2017, dated 2024)

Tests used:
Type in all cases: cell-based, human
22Rv1 cells = assay: Cell proliferation (cell confluence, Incucyte Zoom) and Compusyn combination index, CRPC cell line 22Rv1; conditions: 72 hours; DOX 100 ng/mL [184 nM], N-9 200 ng/mL [613 nM]; 10% CSS; vs vehicle (DMSO)
Experimental: FIG. 4A: The CRPC cell line 22Rv I was cultured in 2% CSS media and was treated for 72 hours with vehicle (DMSO), doxorubicin (DOX), N9-isopropylolomoucine (N-9), or the combination of DOX and N-9 at different concentrations. Cell confluence was monitored using Incucyte Zoom System and the experiments were done with eight replicates each. The data were analyzed using Compusyn software, and a normalized isobologram was built. […] CI=1 represents additivity, CI<1 synergism, and Cl>1 antagonistic effects. […] Cell confluence was monitored using the Incucyte Zoom System. […] Cell confluence was monitored using the Incucyte Zoom System. […]
(§4) Cell proliferation: For growth assay, cells were plated in 96-well plates at 5,000 cells/well (for RWPE-1), or 7,500 cells/well (for 22Rvl, C4-2B, PC3), in 6-12 replicates. […] The Incucyte Zoom software was used to analyzed and graph the results.
To test whether inhibition of this network decreased CRPC cell proliferation, we used doxoruhicin (DOX), which inhibits TOP2A (Tacar et al., 201.3), and N9-isopropylolomoucine (N-9), which targets CCNB 1/CDK1 (Havlicek et al, 1997). […] The normalized isohologram and combination index (CI) were built and determined using Compusyn software.

RWPE-1 cells = assay: Cell proliferation (cell confluence, Incucyte Zoom), non-tumorigenic prostate epithelial cell line RWPE-1; conditions: 72 hours; DOX 100 ng/mL [184 nM], N-9 200 ng/mL [613 nM]; vs vehicle (DMSO)
Experimental: (§5) Cell confluence was monitored using Incucyte Zoom System and the experiments were done with eight replicates each. […] FIG. 4B: The non-tumorigenic prostate epithelial cell line RWPE1, the AR-null PC cell line PC3, and the CRPC cell lines C4-2B and 22Rv1 were treated for 72 hours with vehicle (DMSO), DOX (100 ng/mL [184 nM]), N-9 (200 ng/mL [613 nM]), or the combination of DOX (100 ng/mL [184 nM]) and N-9 (200 ng/mL [613 nM]). C4-2B and 22Rv1 cells were kept in 10% CSS media. Cell confluence was monitored using the Incucyte Zoom System. […] Cell confluence was monitored using the Incucyte Zoom System.
(§6) FIG. 19: The non-tumorigenic prostate epithelial cell line RWPE1, the AR-null PC cell line PC3, the CRPC cell lines C4-2B and 22Rvl and androgen dependent cell line LNCaP were treated for 72 hours with vehicle (DMSO), DOX (100 ng/mL [184 nM]), N-9 (200 ng/mL [613 nM]), or the combination of DOX (100 ng/mL [184 nM]) and N-9 (200 ng/mL [613 nM]). […] Cell confluence was monitored using the Incucyte Zoom System. […]
as §4

PC3 cells = assay: Cell proliferation (cell confluence, Incucyte Zoom), AR-null PC cell line PC3; conditions: 72 hours; DOX 100 ng/mL [184 nM], N-9 200 ng/mL [613 nM]; vs vehicle (DMSO)
Experimental: as §5, §6, §4

C4-2B cells = assay: Cell proliferation (cell confluence, Incucyte Zoom), CRPC cell line C4-2B; conditions: 72 hours; DOX 100 ng/mL [184 nM], N-9 200 ng/mL [613 nM]; 10% CSS; vs vehicle (DMSO)
Experimental: as §5, §6, §4

[1] = tested on: seven gene set (KIF20A, KIF23, TOP2A, CCNB1, CCNB2, BUB1, BUB1b) expression in LNCaP cells; assay: qPCR expression of the seven gene set after androgen (R1881) stimulation, LNCaP; conditions: R1881 0.1 nM, 16 hours, vs vehicle
Experimental: (§1) LNCaP and 22Rv1 cells were seeded and 24 hours later were rinsed twice with PBS and incubated in serum free media for one hour. The cells were then incubated in media containing vehicle or R1881 (0.1 nM) for 16 hours prior to RNA extraction and qPCR analysis. FKBP5 was used as a positive control. Data represent one or two independent experiments, performed in biological triplicates, showing the mean±s.e.m., and normalized to vehicle control. Significant at a p value, ** p value<0.01, *** p value<0.001.
(§2) RNA isolation and reverse transcriptase quantitative RT-qPCR: Total RNA was collected using Trizol according to the manufacturer's protocol (Life Technologies), and isolated using Direct-zol RNA MiniPrep Plus (Zymo Research, Catalog number R2072). Total RNA was reverse transcribed using a cDNA ReverseTranscription kit (Applied Biosystems, Catalog number 4368814) as per the manufacturer's protocol. TaqMan probes from Applied Biosystems for FKBP5 (Hs01561006 ml), UBE2C (Hs00964100 gl), KIF20A (Hs00993573 ml), KIF23 (Hs00370852 ml), TOP2A (Hs01032137 ml), CCNB1 (Hs01030099 ml), CCNB2 (Hs01084593 gl), BUB1 (Hs01557695 ml), BUBlb (Hs01084828 ml) and GAPDH (Hs02786624 gl) were used.
(§3) Because of the overlapping transcriptomes of full length AR and AR-V7, we examined whether full length AR also regulated the seven gene set.

[2] = tested on: seven gene set (KIF20A, KIF23, TOP2A, CCNB1, CCNB2, BUB1, BUB1b) expression in 22Rv1 cells; assay: qPCR expression of the seven gene set after androgen (R1881) stimulation, 22Rv1; conditions: 22Rv1, R1881 0.1 nM, 16 hours, vs vehicle
Experimental: as §1, §2, §3

| SMILES | Effect on proliferation of 22Rv1 (22Rv1 cells) | Effect on proliferation of RWPE-1 (RWPE-1 cells) | Effect on proliferation of PC3 (PC3 cells) | Effect on proliferation of C4-2B (C4-2B cells) | Regulation of expression of the seven genes (qPCR) [1] | Regulation of expression of the seven genes (qPCR) [2] |
| --- | --- | --- | --- | --- | --- | --- |
| COc1cccc2c1C(=O)c1c(O)c3c(c(O)c1C2=O)C[C@@](O)(C(=O)CO)C[C@@H]3O[C@H]1C[C@H](N)[C@H](O)[C@H](C)O1 [DOX, Doxorubicin] | no significant effect | no significant effect | no significant effect | no significant effect | – | – |
| CC(C)n1cnc2c(NCc3ccccc3)nc(NCCO)nc21 [N-9, N9-Isopropylolomoucine] | no significant effect | no significant effect | no significant effect | no significant effect | – | – |
| C[C@]1(O)CC[C@H]2[C@@H]3CCC4=CC(=O)CCC4=C3C=C[C@@]21C [R1881, methyltrienolone] | – | – | – | – | None of the seven genes are regulated | None of the seven genes are regulated |
